# What was measured:
# [1] = molecular target: T1, Glycogen synthase kinase-3 beta (Homo sapiens, UniProt P49841); assay: Inhibition of recombinant full length human His-tagged GSK3beta expressed in baculovirus expression system at 11 uM using ser/thr-9 peptide as substrate measured after 1 hr by Z'-Lyte assay relative to control
# Target sequence in this assay (P49841 whole entry, looked up): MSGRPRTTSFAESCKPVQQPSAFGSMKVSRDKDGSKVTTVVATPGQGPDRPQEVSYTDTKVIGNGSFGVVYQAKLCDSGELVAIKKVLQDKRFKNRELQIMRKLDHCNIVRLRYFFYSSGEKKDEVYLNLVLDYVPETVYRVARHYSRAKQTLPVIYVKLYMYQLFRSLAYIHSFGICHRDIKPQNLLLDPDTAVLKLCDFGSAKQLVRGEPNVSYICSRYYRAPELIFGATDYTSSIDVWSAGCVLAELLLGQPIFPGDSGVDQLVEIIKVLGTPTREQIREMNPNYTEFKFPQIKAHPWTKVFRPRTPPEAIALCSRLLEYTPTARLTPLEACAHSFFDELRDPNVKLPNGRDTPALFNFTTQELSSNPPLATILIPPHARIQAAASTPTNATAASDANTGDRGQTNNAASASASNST
# [2] = molecular target: T2, Casein kinase II subunit alpha (Homo sapiens, UniProt P68400); assay: Inhibition of recombinant full length human His-tagged CK2alpha1 expressed in baculovirus expression system at 11 uM using ser/thr-11 peptide as substrate measured after 1 hr by Z'-Lyte assay relative to control
# Target sequence in this assay (P68400 whole entry, looked up): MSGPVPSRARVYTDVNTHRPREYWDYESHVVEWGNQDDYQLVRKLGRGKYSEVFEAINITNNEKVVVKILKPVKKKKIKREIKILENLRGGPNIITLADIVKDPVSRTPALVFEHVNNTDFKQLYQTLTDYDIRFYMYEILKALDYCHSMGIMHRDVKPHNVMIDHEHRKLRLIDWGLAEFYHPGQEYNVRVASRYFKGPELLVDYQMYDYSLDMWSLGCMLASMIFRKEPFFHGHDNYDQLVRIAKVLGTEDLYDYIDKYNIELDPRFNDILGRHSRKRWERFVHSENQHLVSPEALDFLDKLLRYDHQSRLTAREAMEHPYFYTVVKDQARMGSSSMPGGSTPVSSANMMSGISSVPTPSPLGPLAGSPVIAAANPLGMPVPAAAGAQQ
# [3] = molecular target: T1, Glycogen synthase kinase-3 beta; assay: Inhibition of recombinant full length human His-tagged GSK3beta expressed in baculovirus expression system using ser/thr-9 peptide as substrate measured after 1 hr by Z'-Lyte assay
# Target sequence in this assay (P49841 whole entry): as the sequence (P49841 whole entry, looked up) above
# [4] = molecular target: T2, Casein kinase II subunit alpha; assay: Inhibition of recombinant full length human His-tagged CK2alpha1 expressed in baculovirus expression system using ser/thr-11 peptide as substrate measured after 1 hr by Z'-Lyte assay
# Target sequence in this assay (P68400 whole entry): as the sequence (P68400 whole entry, looked up) above
SMILES,inhibition [1],inhibition [2],IC50 [3],IC50 [4]
CCCN(C(=O)Nc1ccc(F)cc1)C1CCc2nc(NC(=O)Nc3ccc(F)cc3)sc2C1 (stereo not drawn),< 30%,< 30%,–,–
CCCN(C(=O)Nc1ccc(OC)cc1)C1CCc2nc(NCc3ccc(C(=O)OC)cc3)sc2C1 (stereo not drawn),< 30%,< 30%,–,–
CCCN(C(=O)Nc1ccc(F)cc1)C1CCc2nc(NCc3ccc(C(=O)OC)cc3)sc2C1 (stereo not drawn),< 30%,< 30%,–,–
O=C(Nc1ccc(C(=O)O)cc1)Nc1nc2c(s1)CC(N1C(=O)c3ccccc3C1=O)CC2 (stereo not drawn),> 30%,> 30%,4.6 µM,4.9 µM
CCOC(=O)c1cccc(NC(=O)Nc2nc3c(s2)CC(NC(=O)Nc2cccc(C(=O)OCC)c2)CC3)c1 (stereo not drawn),> 30%,> 30%,2.5 µM,20.4 µM
CCCN(C(=O)Nc1cccc(F)c1)C1CCc2nc(NCc3ccc(C(=O)OC)cc3)sc2C1 (stereo not drawn),< 30%,< 30%,–,–
CCCN(C(=O)Nc1ccc(OC)cc1)C1CCc2nc(NC(=O)Nc3ccc(OC)cc3)sc2C1 (stereo not drawn),< 30%,< 30%,–,–
CCCN(C(=O)Nc1cccc(C(=O)OCC)c1)C1CCc2nc(NCc3ccc(C(=O)OC)cc3)sc2C1 (stereo not drawn),> 30%,> 30%,13.6 µM,4.6 µM
CCCN(C(=O)Nc1ccc(OC)cc1)C1CCc2nc(NCc3ccc(C(=O)O)cc3)sc2C1 (stereo not drawn),< 30%,< 30%,–,–
CCCN(C(=O)Nc1cccc(F)c1)C1CCc2nc(NCc3ccc(C(=O)O)cc3)sc2C1 (stereo not drawn),< 30%,< 30%,–,–
O=C(Nc1cccc(F)c1)Nc1nc2c(s1)CC(NC(=O)Nc1cccc(F)c1)CC2 (stereo not drawn),< 30%,< 30%,–,–
O=C(Nc1ccc(C(=O)O)cc1)Nc1nc2c(s1)CC(NC(=O)Nc1ccc(C(=O)O)cc1)CC2 (stereo not drawn),< 30%,< 30%,–,–
CCOC(=O)c1ccc(NC(=O)Nc2nc3c(s2)CC(N2C(=O)c4ccccc4C2=O)CC3)cc1 (stereo not drawn),< 30%,< 30%,–,–
O=C(Nc1cccc(F)c1)Nc1nc2c(s1)CC(N1C(=O)c3ccccc3C1=O)CC2 (stereo not drawn),< 30%,< 30%,–,–
CCCN(C(=O)Nc1ccc(F)cc1)C1CCc2nc(NCc3ccc(C(=O)O)cc3)sc2C1 (stereo not drawn),< 30%,< 30%,–,–
O=C(Nc1cccc(C(=O)O)c1)Nc1nc2c(s1)CC(NC(=O)Nc1cccc(C(=O)O)c1)CC2 (stereo not drawn),> 30%,> 30%,6 µM,12.4 µM
CCCN(C(=O)Nc1cccc(C(=O)O)c1)C1CCc2nc(NC(=O)Nc3cccc(C(=O)O)c3)sc2C1 (stereo not drawn),> 30%,> 30%,1.5 µM,2.8 µM
CCCN(C(=O)Nc1ccccc1F)C1CCc2nc(NC(=O)Nc3ccccc3F)sc2C1 (stereo not drawn),< 30%,< 30%,–,–

SMILES,inhibition [1],inhibition [2],IC50 [3],IC50 [4]
CCCN(C(=O)Nc1ccc(C(=O)O)cc1)C1CCc2nc(NC(=O)Nc3ccc(C(=O)O)cc3)sc2C1 (stereo not drawn),< 30%,< 30%,–,–
O=C(Nc1cccc(C(=O)O)c1)Nc1nc2c(s1)CC(N1C(=O)c3ccccc3C1=O)CC2 (stereo not drawn),> 30%,> 30%,0.67 µM,1.9 µM
CCOC(=O)c1cccc(NC(=O)Nc2nc3c(s2)CC(N2C(=O)c4ccccc4C2=O)CC3)c1 (stereo not drawn),> 30%,> 30%,5.3 µM,7.9 µM
CCCN(C(=O)Nc1ccc(C(=O)OCC)cc1)C1CCc2nc(NCc3ccc(C(=O)OC)cc3)sc2C1 (stereo not drawn),< 30%,< 30%,–,–
O=C(Nc1nc2c(s1)CC(NC(=O)Nc1ccccc1F)CC2)Nc1ccccc1F (stereo not drawn),< 30%,< 30%,–,–
CCCN(C(=O)Nc1cccc(C(=O)O)c1)C1CCc2nc(NCc3ccc(C(=O)O)cc3)sc2C1 (stereo not drawn),> 30%,> 30%,11.4 µM,4 µM
CCCN(C(=O)Nc1ccccc1F)C1CCc2nc(NCc3ccc(C(=O)OC)cc3)sc2C1 (stereo not drawn),< 30%,< 30%,–,–
O=C(Nc1ccc(F)cc1)Nc1nc2c(s1)CC(NC(=O)Nc1ccc(F)cc1)CC2 (stereo not drawn),< 30%,< 30%,–,–
COc1ccc(NC(=O)Nc2nc3c(s2)CC(NC(=O)Nc2ccc(OC)cc2)CC3)cc1 (stereo not drawn),< 30%,< 30%,–,–
COc1ccc(NC(=O)Nc2nc3c(s2)CC(N2C(=O)c4ccccc4C2=O)CC3)cc1 (stereo not drawn),< 30%,< 30%,–,–
CCOC(=O)c1ccc(NC(=O)Nc2nc3c(s2)CC(NC(=O)Nc2ccc(C(=O)OCC)cc2)CC3)cc1 (stereo not drawn),< 30%,< 30%,–,–
CCCN(C(=O)Nc1cccc(F)c1)C1CCc2nc(NC(=O)Nc3cccc(F)c3)sc2C1 (stereo not drawn),< 30%,< 30%,–,–
O=C(Nc1ccc(F)cc1)Nc1nc2c(s1)CC(N1C(=O)c3ccccc3C1=O)CC2 (stereo not drawn),< 30%,< 30%,–,–
O=C(Nc1nc2c(s1)CC(N1C(=O)c3ccccc3C1=O)CC2)Nc1ccccc1F (stereo not drawn),< 30%,< 30%,–,–
CCCN(C(=O)Nc1cccc(C(=O)OCC)c1)C1CCc2nc(NC(=O)Nc3cccc(C(=O)OCC)c3)sc2C1 (stereo not drawn),< 30%,< 30%,–,–
CCCN(C(=O)Nc1ccc(C(=O)OCC)cc1)C1CCc2nc(NC(=O)Nc3ccc(C(=O)OCC)cc3)sc2C1 (stereo not drawn),< 30%,< 30%,–,–
CCCN(C(=O)Nc1ccccc1F)C1CCc2nc(NCc3ccc(C(=O)O)cc3)sc2C1 (stereo not drawn),< 30%,< 30%,–,–
CCCN(C(=O)Nc1ccc(C(=O)O)cc1)C1CCc2nc(NCc3ccc(C(=O)O)cc3)sc2C1 (stereo not drawn),< 30%,< 30%,–,–

# Reference: ChEMBL document CHEMBL4257557, “Design, synthesis, and evaluation of 4,5,6,7-tetrahydrobenzo[d]thiazole-based novel dual kinase inhibitors of CK2 and GSK3β” (Medchemcomm, 2018)
